Measurements published in patent US7208505B2, “β3 adrenergic agonists” (Eli Lilly and Company, priority 2001, dated 2007).

These compounds were tested against T1, human β3 adrenergic receptor (Homo sapiens, UniProt P13945) (assay: whole cell receptor coupled c-AMP assay (Emax relative to isoproterenol)). Settings: % intrinsic activity: maximal response divided by isoproterenol maximal response times 100; transfected CHO cells; average of at least 3 runs.
T1 construct: expressed in transfected cells
Format: cell-based
Text: The genes encoding the human β1-adrenergic receptor (Frielle et al., Proc. Natl. Acad. Sci., 84:7920–7924, 1987), the human β2-adrenergic receptor (Kobika et al., Proc. Natl. Acad. Sci., 84:46–50, 1987, Emorine et al., Proc. Natl. Acad. Sci., 84:6995–6999, 1987) and the human β3 adrenergic receptor (Granneman et al., Molecular Pharmacology, 44(2):264–70, 1993) are individually subcloned into a phd expression vector (Grinnell et al., Bio/Technology, 5:1189–1192, 1987) and transfected into the DXB-11 Chinese hamster ovary (CHO) cell line by calcium phosphate precipitation methodology. The stably transfected cells are grown to 95% confluency in 95% Dulbecco's modified Eagles Medium (DMEM), 5% fetal bovine serum and 0.01% proline. Media is removed and the cells are washed with phosphate buffered (pH 7.4) saline (without magnesium and calcium). Cells are then lifted using an enzyme free cell dissociation solution (Specialty Media, Lavallette, N.J.) and pelleted by centrifugation.
Cells from each of the above cell lines are resuspended and added (20,000/well) to a 96-well plate. Cells are incubated at 37° C. with representative compounds of the invention for 20 minutes in buffer (Hank's balanced salt solution, 10 mM HEPES, 0.1% BSA, 1 mM L-ascorbic acid, 0.2% dimethyl sulfoxide, 1 mM 3-isobutyl-1-methylxanthine, pH 7.4). After halting the incubation with quench buffer (50 mM Na Acetate, 0.25% Triton X-100, pH 5.8), the c-AMP level is quantified by scintillation proximity assay (SPA) using a modification of the commercially available c-AMP kit (Amersham, Arlington Heights, Ill.) with rabbit anti-cAMP antibody (ICN Biomedicals, Aurora, Ohio) for the kit.
Sigmoidal dose response curves, from the whole cell receptor coupled c-AMP assay are fit to a four parameter logistic equation using non linear regression: y=(a−d)/(1+(Dose/c)^b)+d where a and d are responses at zero and maximal dose, b is the slope factor and c is the EC50 as previously described (DeLean et al., Am. J. Physiol., 235, E97-E102, 1978). EC50 is assessed as the concentration producing 50% of the maximum response to each agonist.
Isoproterenol is accepted in the art as a non-selective β3 agonist and is widely used as a comparator in evaluating the activity of compounds. See Trends in Pharm. Sci., 15:3, 1994. The % intrinsic activity (Emax) of representative compounds of the invention is assessed relative to isoproterenol by the compound's maximal response divided by the isoproterenol maximal response times 100.

T1 sequence (P13945 whole entry): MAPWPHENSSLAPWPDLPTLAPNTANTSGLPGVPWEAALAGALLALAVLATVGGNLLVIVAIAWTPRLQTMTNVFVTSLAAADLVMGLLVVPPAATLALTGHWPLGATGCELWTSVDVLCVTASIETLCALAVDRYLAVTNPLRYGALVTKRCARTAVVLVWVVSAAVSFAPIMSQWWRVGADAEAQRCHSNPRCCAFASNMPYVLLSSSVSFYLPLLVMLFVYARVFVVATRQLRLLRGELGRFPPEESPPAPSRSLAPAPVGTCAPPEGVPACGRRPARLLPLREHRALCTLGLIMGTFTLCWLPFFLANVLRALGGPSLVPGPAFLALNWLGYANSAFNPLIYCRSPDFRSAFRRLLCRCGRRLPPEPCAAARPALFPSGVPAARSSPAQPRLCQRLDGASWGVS

SMILES | Emax (%) ± SEM [%]
CC(C)(Cc1c[nH]c2c(C(=O)O)cccc12)NC[C@H](O)COc1ccccc1-c1ccsc1 [Example 61] | 56.6 ± 2.7
CC(C)(Cc1c[nH]c2cc(C#N)ccc12)NC[C@H](O)COc1ccccc1-c1ccon1 [Example 78] | 58.6 ± 0.9
COC(=O)c1ccc(-c2cccc3c(CC(C)(C)NC[C@H](O)COc4ccccc4-c4ccon4)c[nH]c23)cc1 [Example 44] | 38.5 ± 2.3
CC(C)(Cc1c[nH]c2ccccc12)NC[C@H](O)COc1ccccc1-c1ccc(C#N)s1.Cl [Example 11] | 69.0 ± 2.3
Cc1cc(-c2ccccc2OC[C@@H](O)CNC(C)(C)Cc2c[nH]c3c(OCC#N)cccc23)on1.O=C(O)C(F)(F)F [Example 10] | 63.2 ± 5.3
COC(=O)c1ccc2[nH]cc(CC(C)(C)NC[C@H](O)COc3ccccc3-c3cccs3)c2c1 [Example 70] | 37.3 ± 2.7
CC(C)(Cc1c[nH]c2c(OCC#N)cccc12)NCC(O)COc1ccccc1-c1ccoc1 (stereo not drawn) [Example 5] | 66.0 ± 3.6
CC(C)(Cc1c[nH]c2ccccc12)NC[C@H](O)COc1ccccc1-n1cccc1 [Example 32] | 58.9 ± 1.9
CC(C)(Cc1c[nH]c2ccccc12)NC[C@H](O)COc1ccccc1-c1csc(C#N)c1.O=C(O)C(F)(F)F [Example 15] | 50.2 ± 7.3
CC(C)(Cc1c[nH]c2ccccc12)NC[C@H](O)COc1ccccc1-c1nncs1 [Example 82] | 45.5 ± 3.5
CC(C)(Cc1c[nH]c2ccccc12)NC[C@H](O)COc1ccccc1-c1cnco1 [Example 34] | 64.5 ± 2.1
C[C@H](Cn1ccc2ccc(OCC#N)cc21)NC[C@H](O)COc1ccccc1-c1cccs1 [Example 67] | 28.6 ± 3.4
CC(C)(Cc1c[nH]c2ccccc12)NC[C@H](O)COc1ccccc1-c1cc(C#N)cs1.O=C(O)C(F)(F)F [Example 19] | 49.1 ± 4.6
CC(C)(Cc1c[nH]c2cc(C(=O)O)ccc12)NC[C@H](O)COc1ccccc1-c1ccc(S(N)(=O)=O)s1 [Example 55] | 78.4 ± 0.2
COC(=O)c1ccc(-c2cccc3c(CC(C)(C)NC[C@H](O)COc4ccccc4-n4cccc4)c[nH]c23)cc1 [Example 45] | 41.9 ± 4.5
CC(=O)c1ccc(-c2cccc3c(CC(C)(C)NC[C@H](O)COc4ccccc4-c4cccs4)c[nH]c23)cc1 [Example 48] | 60.4 ± 6.0
CC(C)(Cc1c[nH]c2ccccc12)NC[C@H](O)COc1ccccc1-c1nccs1 [Example 68] | 53.2 ± 1.6
Cc1cc(-c2ccccc2OC[C@@H](O)CNC(C)(C)Cc2c[nH]c3ccccc23)cs1.O=C(O)C(F)(F)F [Example 17] | 43.1 ± 3.0
CC(C)(Cc1c[nH]c2ccccc12)NC[C@H](O)COc1ccccc1-c1ccns1 [Example 83] | 73.7 ± 2.0
CC(C)(Cc1c[nH]c2c(-c3ccc(C(F)(F)F)cc3)cccc12)NC[C@H](O)COc1ccccc1-c1cccs1 [Example 104] | 59.2 ± 1.0
CC(C)(Cc1c[nH]c2c(OCC#N)cccc12)NC[C@H](O)COc1ccccc1-c1ncco1.O=C(O)C(F)(F)F [Example 8] | 82.2 ± 3.8
CC(Cc1cn(C)c2c(F)cc(F)cc12)NCC(O)COc1ccccc1-c1cccs1 (stereo not drawn) [Example 197] | 34.5 ± 4.2
CC(C)(Cc1c[nH]c2c(-c3cccc(C(F)(F)F)c3)cccc12)NC[C@H](O)COc1ccccc1-c1ccon1 [Example 38] | 78.0 ± 2.8
CCOC(=O)c1cccc(-c2cccc3c(CC(C)(C)NC[C@H](O)COc4ccccc4-n4cccc4)c[nH]c23)c1 [Example 42] | 61.0 ± 4.5
CC(C)(Cc1c[nH]c2c(-c3ccc(C(N)=O)cc3)cccc12)NC[C@H](O)COc1ccccc1-c1cccs1 [Example 102] | 69.0 ± 2.2
CC(C)(Cc1c[nH]c2c(OCC#N)cccc12)NC[C@H](O)COc1ccccc1-c1cocn1.O=C(O)C(F)(F)F [Example 6] | 55.0 ± 3.4
COC(=O)c1cccc2c(CC(C)(C)NC[C@H](O)COc3ccccc3-c3cccs3)c[nH]c12 [Example 76] | 67.6 ± 5.2

Results, then the compound that gave them:

Emax (%) ± SEM [%] | SMILES
71.5 ± 1.1 | CC(=O)Nc1ccc(-c2cccc3c(CC(C)(C)NC[C@H](O)COc4ccccc4-c4cccs4)c[nH]c23)cc1 [Example 179]
65.5 ± 4.7 | CC(C)(Cc1c[nH]c2c(OCC#N)cccc12)NC[C@H](O)COc1ccccc1-c1cccs1 [Example 137]
46.6 ± 1.9 | C[C@H](Cn1ccc2c(OCC#N)cccc21)NC[C@H](O)COc1ccccc1-c1ccon1 [Example 150]
23.6 ± 1.7 | C[C@@H](NC[C@H](O)COc1ccccc1-c1cccs1)C(=O)N1CCc2ccccc21 [Example 131]
47.8 ± 0.6 | CC(C)(Cc1c[nH]c2cccc(F)c12)NC[C@H](O)COc1ccccc1-c1ccon1 [Example 166]
76.5 ± 3.0 | CC(C)(Cc1c[nH]c2c(Oc3ncccc3C#N)cccc12)NC[C@H](O)COc1ccccc1-c1ccon1 [Example 113]
70.5 ± 3.8 | CC(C)(Cc1c[nH]c2c(C=Cc3cnccn3)cccc12)NC[C@H](O)COc1ccccc1-c1cccs1 [Example 188]
73.8 ± 1.5 | CC(C)(Cc1c[nH]c2c(OCCNS(C)(=O)=O)cccc12)NC[C@H](O)COc1ccccc1-c1cccs1 [Example 177]
32.0 ± 5.5 | CC(C)(NC[C@H](O)COc1ccccc1-c1ccon1)C(=O)N1CCc2ccccc21 [Example 193]
68.0 ± 4.1 | CC(C)(Cc1c[nH]c2c(-c3cccs3)cccc12)NC[C@H](O)COc1ccccc1-c1ccon1 [Example 109]
72.5 ± 2.2 | COC(=O)c1ccc(-c2cccc3c(CC(C)(C)NC[C@H](O)COc4ccccc4-c4cccs4)c[nH]c23)cc1 [Example 178]
58.7 ± 13.4 | C[C@H](Cn1ccc2cc(OCC#N)ccc21)NC[C@H](O)COc1ccccc1-c1cccs1 [Example 155]
71.5 ± 7.9 | CC(C)(Cc1c[nH]c2c(-c3cccs3)cccc12)NC[C@H](O)COc1ccccc1-c1cccs1 [Example 108]
71.2 ± 1.2 | CC(C)(Cc1c[nH]c2c(F)cccc12)NC[C@H](O)COc1ccccc1-c1cccs1 [Example 170]
72.7 ± 5.3 | CC(C)(Cc1c[nH]c2c(-c3ccc(C(F)(F)F)cc3C(F)(F)F)cccc12)NC[C@H](O)COc1ccccc1-c1cccs1 [Example 110]
83.3 ± 4.0 | CC(C)(Cc1c[nH]c2c(Oc3ccc(C#N)cn3)cccc12)NC[C@H](O)COc1ccccc1-c1cccs1 [Example 115]
72.1 ± 5.0 | CC(C)(Cc1c[nH]c2c(Oc3cc(C#N)ccn3)cccc12)NC[C@H](O)COc1ccccc1-c1cccs1 [Example 114]

Same assay, conditions: CHO, % intrinsic activity relative to isoproterenol; transfected CHO cells

Emax [%] | SMILES
73.8 | CC(C)(Cc1c[nH]c2c(OCC(=O)O)cccc12)NC[C@H](O)COc1ccccc1-n1cccc1 [Example 203]

Same assay, conditions: CHO, % intrinsic activity: maximal response divided by isoproterenol maximal response times 100; transfected CHO cells; average of at least 3 runs

Emax [%] | SMILES
68.8 ± 7.8 | CC(C)(Cc1c[nH]c2c(-c3cccc(C(=O)O)c3)cccc12)NC[C@H](O)COc1ccccc1-c1ccon1 [Example 249]
85 ± 4.9 | CC(C)(Cc1c[nH]c2c(OCC3=NCCS3)cccc12)NC[C@H](O)COc1ccccc1-c1cccs1 [Example 231]
69.6 ± 3.5 | CC(C)(Cc1c[nH]c2ccc(C(=O)O)cc12)NC[C@H](O)COc1ccccc1-c1cccs1 [Example 239]
54.6 ± 2.4 | CC(C)(Cc1c[nH]c2c(-c3ccc(C(=O)O)cc3)cccc12)NC[C@H](O)COc1ccccc1-c1ccon1 [Example 247]
63.3 ± 3 | CC(C)(Cc1c[nH]c2c(Oc3ccc(C(N)=O)cn3)cccc12)NC[C@H](O)COc1ccccc1-c1ccon1 [Example 245]
66.4 ± 6.4 | CC(C)(Cc1c[nH]c2c(OCC(=O)O)cccc12)NC[C@H](O)COc1ccccc1-c1nccs1 [Example 234]
83.9 ± 3.2 | CC(C)(Cc1c[nH]c2cc(CCc3nnn[nH]3)ccc12)NC[C@H](O)COc1ccccc1-c1cccs1 [Example 255]
81.8 ± 8.5 | CC(C)(Cc1c[nH]c2cccc(C(N)=O)c12)NC[C@H](O)COc1ccccc1-c1cccs1 [Example 257]
86.3 ± 3.4 | CC(C)(Cc1c[nH]c2c(CCc3ccc(-c4nnn[nH]4)cc3)cccc12)NC[C@H](O)COc1ccccc1-c1cccs1 [Example 251]
